Laboratory results from paper PMC10874388, “Cyclic peptides discriminate BCL-2 and its clinical mutants from BCL-XL by engaging a single-residue discrepancy” (Nature Communications, 2024).
Values joined by “and” are separate entries in the source; they are usually repeats but may differ in a detail not shown here. Identical values can stand only once.

Experiments:
Assay type in all cases: cell-based
[1] = test system: Jurkat cells; experiment: Cell viability assay (CellTiter-Glo), Jurkat
Procedure: (§1) The cell lines Jurkat (TIB-152), El4 (TIB-39), Daudi (ccl-213), RS4:11 (crl-1873), A549 (ccl-185), HepG2 (hb-8065) and PANC-1 (crl-1469) were purchased from ATCC (American Type Culture Collection), and MGC-803 (C6582) was purchased from Beyotime (https://www.beyotime.com/product/C6582.htm). […] Daudi and RS4:11 cells were cultured in RPMI-1640 medium (HyClone, SH30809.01) and 10% FBS (Gibco, 10099-141), whereas HepG2, MGC-803 and PANC-1 cells were cultured in MDEM (HyClone, SH30243.01). Cells were maintained at 37 °C under a humidified, 5% (v/v) CO2-containing atmosphere.
(§2) Cell viability was measured using CellTiter-Glo® 2.0 Reagent (Promega, G9242). […] After different inhibitors were added into serum-free medium and cultured for 4 h (RS4:11 for 6 h), FBS were supplemented to 10% and then incubated totally for 24 h or 48 h. Finally, the IC50 values were calculated based on measurements using a microplate reader (Thermo, Varioskan LUX). Statistical analysis was performed using software GraphPad Prism 7.0.

[2] = test system: Daudi cells; experiment: Cell viability assay (CellTiter-Glo), Daudi; conditions: Daudi
Procedure: as §1, §2

[3] = test system: RS4:11 cells; experiment: Cell viability assay (CellTiter-Glo), RS4:11; conditions: single wells; for raw luminescence reading / inhibition rate: RS4:11
Procedure: as §1, §2

Structure (SMILES): CC1(C)CCC(c2ccc(Cl)cc2)=C(CN2CCN(c3ccc(C(=O)NS(=O)(=O)c4ccc(N[C@H](CCN5CCOCC5)CSc5ccccc5)c(S(=O)(=O)C(F)(F)F)c4)cc3)CC2)C1 [ABT263]
- inhibition relative to 0 uM control, replicates ([1]; 0.375 uM): 36% and 32% (2×) and 29% and 31%
- raw viability signal, replicates ([1]; 0.375 uM): 1239000 and 1266000 and 1356000 and 1351000 and 1403000 and 1379000
- inhibition relative to 0 uM control, replicates ([1]; 0.75 uM): 33% and 36% and 41%
- raw viability signal, replicates ([1]; 0.75 uM): 1132000 and 1330000 and 1241000 and 1225000 and 1265000 and 1179000
- inhibition relative to 0 uM control, replicates ([1]; 1.5 uM): 44% and 41% and 40% and 37% and 34%
- raw viability signal, replicates ([1]; 1.5 uM): 1078000 and 1124000 and 1172000 and 1189000 and 1263000 and 1304000
- inhibition relative to 0 uM control, replicates ([1]; 3 uM): 44% and 39% and 40%
- raw viability signal, replicates ([1]; 3 uM): 1152000 and 1105000 and 1149000 and 1214000 and 1192000 and 1143000
- inhibition relative to 0 uM control, replicates ([1]; 6 uM): 47% and 44% and 41%
- raw viability signal, replicates ([1]; 6 uM): 1071000 and 1059000 and 1122000 and 1132000 and 1181000 and 1149000
- inhibition relative to 0 uM control, replicates ([1]; 12 uM): 60% and 56% and 54% and 53%
- raw viability signal, replicates ([1]; 12 uM): 855500 and 799300 and 877600 and 917700 and 934900 and 865100
- inhibition at 0.375 µM ([1]; Homo sapiens, 0.375 uM, read-out: inhibition relative to 0 uM control, replicates): 38%
- inhibition at 0.75 µM ([1]; Homo sapiens, 0.75 uM, read-out: inhibition relative to 0 uM control, replicates): 43%
- inhibition at 1.5 µM ([1]; Homo sapiens, 1.5 uM, read-out: inhibition relative to 0 uM control, replicates): 46%
- inhibition at 3 µM ([1]; Homo sapiens, 3 uM, read-out: inhibition relative to 0 uM control, replicates): 42%
- inhibition at 6 µM ([1]; Homo sapiens, 6 uM, read-out: inhibition relative to 0 uM control, replicates): 46%
- inhibition at 12 µM ([1]; Homo sapiens, 12 uM, read-out: inhibition relative to 0 uM control, replicates): 57%
- inhibition relative to 0 uM control, replicates ([2]; 0.78125 uM): -13% and 6.58% and 11% and 14% and -14% and 9%
- raw viability signal, replicates ([2]; 0.78125 uM): 1671 and 1386 and 1318 and 1281 and 1698 and 1345
- inhibition relative to 0 uM control, replicates ([2]; 1.5625 uM): 12% and 28% and 13% and 5% and 2.67% and -0.427%
- raw viability signal, replicates ([2]; 1.5625 uM): 1303 and 1062 and 1294 and 1413 and 1444 and 1490
- inhibition relative to 0 uM control, replicates ([2]; 3.125 uM): 25% and 4% and 5% and 17% and 29% and 48%
- raw viability signal, replicates ([2]; 3.125 uM): 1117 and 1426 and 1406 and 1238 and 1059 and 765.3
- inhibition relative to 0 uM control, replicates ([2]; 6.25 uM): 51% and 31% and 24% and 23% and 20% and 40%
- raw viability signal, replicates ([2]; 6.25 uM): 729.7 and 1018 and 1129 and 1147 and 1185 and 883.7
- inhibition relative to 0 uM control, replicates ([2]; 12.5 uM): 38% and 61% and 46% and 56% and 44% and 48%
- raw viability signal, replicates ([2]; 12.5 uM): 920.2 and 574.4 and 802.0 and 653.5 and 827.6 and 767.5
- inhibition relative to 0 uM control, replicates ([2]; 25 uM): 71% and 70% and 63% and 61% (2×) and 82%
- raw viability signal, replicates ([2]; 25 uM): 436.2 and 441.9 and 545.0 and 582.0 and 581.4 and 260.8
- inhibition at 0.000488281 µM ([3]; Homo sapiens, RS4-11, RS4:11, 0.488281 nM, read-out: inhibition rate): 67%
- inhibition at 0.000976562 µM ([3]; Homo sapiens, RS4-11, RS4:11, 0.976562 nM, read-out: inhibition rate): 81%
- inhibition at 0.00195312 µM ([3]; Homo sapiens, RS4-11, RS4:11, 1.95312 nM, read-out: inhibition rate): 97%
- inhibition at 0.00390625 µM ([3]; Homo sapiens, RS4-11, RS4:11, 3.90625 nM, read-out: inhibition rate): 99%
- inhibition at 0.0078125 µM ([3]; Homo sapiens, RS4-11, RS4:11, 7.8125 nM, read-out: inhibition rate): 100%
- inhibition at 0.015625 µM ([3]; Homo sapiens, RS4-11, RS4:11, 15.625 nM, read-out: inhibition rate): 100%
- inhibition at 0.03125 µM ([3]; Homo sapiens, RS4-11, RS4:11, 31.25 nM, read-out: inhibition rate): 100%
- inhibition at 0.0625 µM ([3]; Homo sapiens, RS4-11, RS4:11, 62.5 nM, read-out: inhibition rate): 100%
- inhibition at 0.125 µM ([3]; Homo sapiens, RS4-11, RS4:11, 125 nM, read-out: inhibition rate): 100%
- inhibition at 0.25 µM ([3]; Homo sapiens, RS4-11, RS4:11, 250 nM, read-out: inhibition rate): 100%
- inhibition at 0.5 µM ([3]; Homo sapiens, RS4-11, RS4:11, 500 nM, read-out: inhibition rate): 100%
- inhibition at 1 µM ([3]; Homo sapiens, RS4-11, RS4:11, 1000 nM, read-out: inhibition rate): 100%
- raw luminescence reading ([3]; 0.244141 nM): 319400 and 358600 and 385500 and 388700 and 346000 and 423800
- raw luminescence reading ([3]; 0.488281 nM): 145900 and 162000 and 168900 and 156800 and 153400 and 152700
- inhibition rate ([3]; 0.488281 nM, 0.000488281 µM): 63% and 62% and 65% and 66%
- raw luminescence reading ([3]; 0.976562 nM): 85360 and 92040 and 97200 and 90740 and 85390 and 85400
- inhibition rate ([3]; 0.976562 nM, 0.000976562 µM): 79% and 78% and 80%
- raw luminescence reading ([3]; 1.95312 nM): 14920 and 16290 and 16450 and 15190 and 15570 and 13650
- inhibition rate ([3]; 1.95312 nM, 0.00195312 µM): 96%
- raw luminescence reading ([3]; 3.90625 nM): 2969 and 3143 and 3110 and 2929 and 2545 and 2763
- raw luminescence reading ([3]; 7.8125 nM): 1394 and 1471 and 1609 and 1459 and 1530 and 1294
- raw luminescence reading ([3]; 15.625 nM): 649.5 and 693.0 and 701.2 and 740.3 and 855.6 and 501.0
- raw luminescence reading ([3]; 31.25 nM): 598.7 and 870.6 and 1121 and 921.5 and 938.2 and 1010
- raw luminescence reading ([3]; 62.5 nM): 361.9 and 494.9 and 587.5 and 446.2 and 364.9 and 488.9
- raw luminescence reading ([3]; 125 nM): 503.8 and 401.2 and 517.1 and 644.2 and 454.2 and 588.4
- raw luminescence reading ([3]; 250 nM): 1061 and 1147 and 1486 and 1266 and 1158 and 1293
- raw luminescence reading ([3]; 500 nM): 507.0 and 488.7 and 440.9 and 484.8 and 485.1 and 504.0
- raw luminescence reading ([3]; 1000 nM): 274.1 and 376.6 and 535.0 and 446.7 and 313.0 and 467.2
